Key:
[1] = test system: patients afflicted with congestive heart failure; details: spironolactone 100 mg/day coadministered with an ACE inhibitor; van Vliet et al 1993; cited from earlier work
[2] = test system: patients with symptomatic heart failure; assay: Human clinical trial: hospitalizations and deaths
[3] = test system: patients with symptomatic heart failure; assay: Human clinical trial: weight and vital signs; assay type: in vivo, humans; details: 75 mg dose group, Day 9 and Week 4 visits
Experimental: (§1) Concurrent medication within the past 30 days. • 2. 12-lead ECG • 3. […] Signs and symptoms within the past 30 days.
Patients were evaluated 9 days after beginning study medication.
(§2) All statistical methods were two-sided.

[4] = test system: patients with symptomatic heart failure; assay: Human clinical trial: cardiac assessments (sodium retention score, NYHA class) and changes in patient therapy; assay type: in vivo, humans; details: spironolactone groups vs placebo; difference not statistically significant
From the text: as §1, §2

[5] = test system: patients with symptomatic heart failure; assay: Human clinical trial: neurohormones (urinary aldosterone, plasma renin activity, N-terminal ANF); details: 12 week visit, dose response (p = 0.002)

CC(=O)S[C@@H]1CC2=CC(=O)CC[C@]2(C)[C@H]2CC[C@@]3(C)[C@@H](CC[C@@]34CCC(=O)O4)[C@H]12 [Spironolactone, 17-hydroxy-7α-mercapto-3-oxo-17α-pregn-4-ene-21-carboxylic acid γ-lactone acetate]
patients in whom the treatment was highly effective [1]: 13 of 16 | patients died within 30 days after the study was completed ([2]; previously at the 50 mg dose): Three | Hospitalizations, percent of patients ([2]; spironolactone 12.5 mg): 7.3% | Hospitalizations, percent of patients ([2]; spironolactone 25 mg): 6.6% | Hospitalizations, percent of patients ([2]; spironolactone 50 mg): 27.6% | Hospitalizations, percent of patients ([2]; spironolactone 75 mg): 14.6% | changes from baseline in body weight [3]: more weight loss than other patients | NYHA Class [4]: trend toward improvement | Urinary aldosterone excretion, change from baseline [5]: Greater increases were seen at higher doses of spironolactone

Source: patent EP0808172B1, “COMBINATION OF ANGIOTENSIN CONVERTING ENZYME INHIBITOR AND ALDOSTERONE ANTAGONIST FOR THE TREATMENT OF VENTRICULAR HYPERTROPHY” (priority 1995, dated 1996)
